Assay results: patent publication US11590116B2 (THERAVANCE BIOPHARMA R&D IP, LLC, priority 2019, dated 2023)
Where two headings read alike, the source gives them in different places.

Tests used:
[1] = biological target: T1, recombinant human ALK5 (TGF-βR1) protein (Homo sapiens, UniProt P36897); assay: Biochemical ALK5 (TGF-βR1) assay to measure pKi (LANCE Ultra ULight kinase assay); details: apparent pKi from pIC50 by Cheng-Prusoff, read-out: ALK5 pKi (converted)
T1 construct: purchased Life Technologies PR9075A
T1 sequence (P36897 34-503): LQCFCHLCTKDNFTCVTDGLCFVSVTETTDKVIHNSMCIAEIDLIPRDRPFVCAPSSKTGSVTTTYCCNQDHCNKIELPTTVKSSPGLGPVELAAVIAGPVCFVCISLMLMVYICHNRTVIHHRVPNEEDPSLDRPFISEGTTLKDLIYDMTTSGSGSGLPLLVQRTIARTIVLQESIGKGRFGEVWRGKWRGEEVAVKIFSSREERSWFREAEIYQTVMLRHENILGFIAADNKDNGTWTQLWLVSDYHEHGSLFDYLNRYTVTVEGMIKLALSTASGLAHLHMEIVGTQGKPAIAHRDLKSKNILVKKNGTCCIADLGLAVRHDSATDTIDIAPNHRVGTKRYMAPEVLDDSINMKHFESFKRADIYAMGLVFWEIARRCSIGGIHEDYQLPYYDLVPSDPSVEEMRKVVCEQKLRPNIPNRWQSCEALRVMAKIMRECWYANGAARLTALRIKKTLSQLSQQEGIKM
Procedure, shortened: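 Compounds (10 μM to 25 pM) preincubated 60 minutes at room temperature with enzyme, then reaction run 60 minutes at 37° C with ATP added as 125 μM (5× final). Stopped with EDTA plus Eu-anti-phospho-Topoisomerase 2-alpha (Thr1342) antibody, TR-FRET read at 665 nm; pIC50 converted to pKi via Cheng-Prusoff.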

[2] = system: TGF-β-stimulated SMAD3 phosphorylation in BEAS-2B cells; assay: Cellular ALK5 potency assay, inhibition of TGF-β stimulated pSMAD3 formation in BEAS-2B cells; type: cell-based; details: Homo sapiens, read-out: BEAS2B pIC50 (converted)
Procedure, shortened: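 BEAS-2B human lung epithelial cells pre-treated 1 h at 37° C with compound in HBSS/25 mM HEPES/1% BSA, then stimulated 30 min with 10 ng/mL TGF-β (final). Lysates assayed for pSMAD3 by AlphaLISA; pIC50 from dose-dependent change versus stimulated untreated cells.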

[3] = inhibition of TGF-β stimulated pSMAD3 formation, BEAS-2B cells

Structure (SMILES) | Ki [1] | IC50 [2, 3] | IC50 ([2]; BEAS-2B)
Cc1cccc(-c2[nH]cnc2-c2ccc3ncc(-c4ncc(C(=O)O)s4)cc3c2)n1 [Compound 1017, 2-(6-(5-(6-methylpyridin-2-yl)-1H-imidazol-4-yl)quinolin-3-yl)thiazole-5-carboxylic acid] | 0.0398 to 0.316 nM | 1580 to 10000 nM | 
Cc1cccc(-c2[nH]cnc2-c2ccc3ncc(-c4ncc(C(=O)OC5CNC5)s4)cc3c2)n1 [Compound 1018, azetidin-3-yl 2-(6-(5-(6-methylpyridin-2-yl)-1H-imidazol-4-yl)quinolin-3-yl)thiazole-5-carboxylate] | 0.0398 to 0.316 nM | 25.1 to 158 nM | 
Cc1cccc(-c2[nH]cnc2-c2ccc3ncc(-c4csc(C(=O)O[C@H]5CCNC5)n4)cc3c2)n1 [Compound 1024, [(3S)-pyrrolidin-3-yl] 4-[6-[5-(6-methyl-2-pyridyl)-1H-imidazol-4-yl]-3-quinolyl]thiazole-2-carboxylate] | 0.0398 to 0.316 nM | 25.1 to 158 nM | 
Cc1cccc(-c2[nH]cnc2-c2ccc3ncc(-c4ccc(C(=O)OCCN5CCNCC5)cn4)cc3c2)n1 [Compound 1025, 2-piperazin-1-ylethyl 6-[6-[5-(6-methyl-2-pyridyl)-1H-imidazol-4-yl]-3-quinolyl]pyridine-3-carboxylate] | 0.0398 to 0.316 nM | 25.1 to 158 nM | 
Cc1cccc(-c2[nH]cnc2-c2ccc3ncc(-c4ccc(CN5CCNCC5)nc4)cc3c2)n1 [Compound 1026, 6-[5-(6-methyl-2-pyridyl)-1H-imidazol-4-yl]-3-[6-(piperazin-1-ylmethyl)-3-pyridyl]quinoline] | 0.0398 to 0.316 nM | 25.1 to 158 nM | 
Cc1cccc(-c2[nH]cnc2-c2ccc3ncc(-c4ccc(C(=O)OC5CNC5)cn4)cc3c2)n1 [Compound 1027, azetidin-3-yl 6-[6-[5-(6-methyl-2-pyridyl)-1H-imidazol-4-yl]-3-quinolyl]pyridine-3-carboxylate] | 0.0398 to 0.316 nM | 25.1 to 158 nM | 
Cc1cccc(-c2[nH]cnc2-c2ccc3ncc(-c4ncc(CN5C[C@@H](C)N[C@@H](C)C5)s4)cc3c2)n1 [Compound 1028, 5-[[(3S,5R)-3,5-dimethylpiperazin-1-yl]methyl]-2-[6-[5-(6-methyl-2-pyridyl)-1H-imidazol-4-yl]-3-quinolyl]thiazole] | 0.0398 to 0.316 nM | < 20 nM | 
Cc1cccc(-c2[nH]ncc2-c2ccc3ncc(OC(=O)[C@H]4C[C@@H](N)C4)cc3c2)n1 [Compound 1032, 6-(5-(6-methylpyridin-2-yl)-1H-pyrazol-4-yl)quinolin-3-yl (1s,3s)-3-aminocyclobutane-1-carboxylate] | 0.0398 to 0.316 nM |  | < 20 nM
Cc1cccc(-c2[nH]cnc2-c2ccc3ncc(C4=CCN(C(=O)C5CNC5)CC4)cc3c2)n1 [Compound 1036, azetidin-3-yl-[4-[6-[5-(6-methyl-2-pyridyl)-1H-imidazol-4-yl]-3-quinolyl]-3,6-dihydro-2H-pyridin-1-yl]methanone] | 0.0398 to 0.316 nM | 200 to 1260 nM | 
Cc1cccc(-c2[nH]cnc2-c2ccc3nccc(C(=O)OCC4CNC4)c3c2)n1 [Compound 1038, azetidin-3-ylmethyl 6-[5-(6-methyl-2-pyridyl)-1H-imidazol-4-yl]quinoline-4-carboxylate] | 0.398 to 3.16 nM | 25.1 to 158 nM | 
Cc1cccc(-c2[nH]cnc2-c2ccc3ncc(C(=O)OCCN)cc3c2)n1 [Compound 1040, 2-aminoethyl 6-[5-(6-methyl-2-pyridyl)-1H-imidazol-4-yl]quinoline-3-carboxylate] | 0.398 to 3.16 nM | 25.1 to 158 nM | 
Cc1cccc(-c2[nH]cnc2-c2ccc3ncc(-c4cccc(C(=O)O)n4)cc3c2)n1 [Compound 1041, 6-[6-[5-(6-methyl-2-pyridyl)-1H-imidazol-4-yl]-3-quinolyl]pyridine-2-carboxylic acid] | 0.0398 to 0.316 nM | 1580 to 10000 nM | 
Cc1cccc(-c2[nH]cnc2-c2ccc3nccc(C(=O)O[C@H]4C[C@@H](N)C4)c3c2)n1 [Compound 1042, (3-aminocyclobutyl) 6-[5-(6-methyl-2-pyridyl)-1H-imidazol-4-yl]quinoline-4-carboxylate] | 0.398 to 3.16 nM | 25.1 to 158 nM | 
Cc1cccc(-c2[nH]cnc2-c2ccc3ncc(-c4nc(C5=CCNC5)cs4)cc3c2)n1 [Compound 1043, 4-(2,5-dihydro-1H-pyrrol-3-yl)-2-[6-[5-(6-methyl-2-pyridyl)-1H-imidazol-4-yl]-3-quinolyl]thiazole] | 0.0398 to 0.316 nM | < 20 nM | 
Cc1cccc(-c2[nH]cnc2-c2ccc3ncc(-c4cccc(C(=O)OCC5CNC5)n4)cc3c2)n1 [Compound 1044, azetidin-3-ylmethyl 6-[6-[5-(6-methyl-2-pyridyl)-1H-imidazol-4-yl]-3-quinolyl]pyridine-2-carboxylate] | < 0.0316 nM | 200 to 1260 nM | 
Cc1cccc(-c2[nH]cnc2-c2ccc3ncc(-c4ccc(CN5C[C@@H](C)N[C@@H](C)C5)nc4)cc3c2)n1 [Compound 1045, 3-(6-(((3S,5R)-3,5-dimethylpiperazin-1-yl)methyl)pyridin-3-yl)-6-(5-(6-methylpyridin-2-yl)-1H-imidazol-4-yl)quinoline] | 0.0398 to 0.316 nM | 25.1 to 158 nM | 
Cc1cccc(-c2[nH]cnc2-c2ccc3ncc(-c4csc(C(=O)OC5CNC5)n4)cc3c2)n1 [Compound 1046, azetidin-3-yl 4-[6-[5-(6-methyl-2-pyridyl)-1H-imidazol-4-yl]-3-quinolyl]thiazole-2-carboxylate] | 0.0398 to 0.316 nM | 25.1 to 158 nM | 
Cc1cccc(-c2[nH]ncc2-c2ccc3nccc(C(=O)O[C@H]4C[C@@H](N)C4)c3c2)n1 [Compound 1047, (3-aminocyclobutyl) 6-[5-(6-methyl-2-pyridyl)-1H-pyrazol-4-yl]quinoline-4-carboxylate] | 0.398 to 3.16 nM | 25.1 to 158 nM | 
Cc1cccc(-c2[nH]cnc2-c2ccc3ncc(C(=O)OCCC4CCNCC4)cc3c2)n1 [Compound 1048, 2-(4-piperidyl)ethyl 6-[5-(6-methyl-2-pyridyl)-1H-imidazol-4-yl]quinoline-3-carboxylate] | 0.0398 to 0.316 nM | 25.1 to 158 nM | 
Cc1cccc(-c2[nH]cnc2-c2ccc3ncc(-c4ccnc(C(=O)O[C@@H]5CCNC5)c4)cc3c2)n1 [Compound 1050, [(3R)-pyrrolidin-3-yl] 4-[6-[5-(6-methyl-2-pyridyl)-1H-imidazol-4-yl]-3-quinolyl]pyridine-2-carboxylate] | 0.0398 to 0.316 nM | 200 to 1260 nM | 
Cc1cccc(-c2[nH]cnc2-c2ccc3ncc(-c4nc(C5=CCNCC5)cs4)cc3c2)n1 [Compound 1051, 2-(6-(5-(6-methylpyridin-2-yl)-1H-imidazol-4-yl)quinolin-3-yl)-4-(1,2,3,6-tetrahydropyridin-4-yl)thiazole] | 0.0398 to 0.316 nM | < 20 nM | 
Cc1cccc(-c2[nH]cnc2-c2ccc3ncc(-c4cnc(C(=O)OCC5CNC5)nc4)cc3c2)n1 [Compound 1052, azetidin-3-ylmethyl 5-[6-[5-(6-methyl-2-pyridyl)-1H-imidazol-4-yl]-3-quinolyl]pyrimidine-2-carboxylate] | 0.398 to 3.16 nM | 200 to 1260 nM | 
Cc1cccc(-c2[nH]cnc2-c2ccc3ncc(-c4ccc(C(=O)OCCN5CCNCC5)nc4)cc3c2)n1 [Compound 1054, 2-piperazin-1-ylethyl 5-[6-[5-(6-methyl-2-pyridyl)-1H-imidazol-4-yl]-3-quinolyl]pyridine-2-carboxylate] | 0.0398 to 0.316 nM | 200 to 1260 nM | 
Cc1cccc(-c2[nH]cnc2-c2ccc3ncc(-c4ncc(CN5CCNCC5)s4)cc3c2)n1 [Compound 1055, 2-[6-[5-(6-methyl-2-pyridyl)-1H-imidazol-4-yl]-3-quinolyl]-5-(piperazin-1-ylmethyl)thiazole] | 0.0398 to 0.316 nM | < 20 nM | 
Cc1cccc(-c2[nH]cnc2-c2ccc3ncc(-c4ccc5c(c4)CC[C@@H]5N)cc3c2)n1 [Compound 1056, (1S)-5-[6-[5-(6-methyl-2-pyridyl)-1H-imidazol-4-yl]-3-quinolyl]indan-1-amine] | 0.0398 to 0.316 nM | 25.1 to 158 nM | 
Cc1cccc(-c2[nH]cnc2-c2ccc3ncc(-c4cc(C(=O)OC5CNC5)cs4)cc3c2)n1 [Compound 1057, azetidin-3-yl 5-[6-[5-(6-methyl-2-pyridyl)-1H-imidazol-4-yl]-3-quinolyl]thiophene-3-carboxylate] | < 0.0316 nM | 25.1 to 158 nM | 
Cc1cccc(-c2[nH]cnc2-c2ccc3ncc(-c4ccnc(C(=O)O[C@H]5CCNC5)c4)cc3c2)n1 [Compound 1058, [(3S)-pyrrolidin-3-yl] 4-[6-[5-(6-methyl-2-pyridyl)-1H-imidazol-4-yl]-3-quinolyl]pyridine-2-carboxylate] | 0.0398 to 0.316 nM | 200 to 1260 nM | 
Cc1cccc(-c2[nH]cnc2-c2ccc3ncc(-c4cnc(C(=O)O[C@@H]5CCNC5)nc4)cc3c2)n1 [Compound 1059, [(3R)-pyrrolidin-3-yl] 5-[6-[5-(6-methyl-2-pyridyl)-1H-imidazol-4-yl]-3-quinolyl]pyrimidine-2-carboxylate] | 0.0398 to 0.316 nM | 200 to 1260 nM | 
